Assay results reported in patent US9562053B2, “Benzo-fused heterocyclic derivatives useful as agonists of GPR120” (Janssen Pharmaceutica NV, priority 2013, dated 2017).

Biological target: T1, Human GPR120 short form (Homo sapiens, UniProt Q5NUL3)
T1 construct: expressed in transfected cells
T1 sequence (Q5NUL3 1-361): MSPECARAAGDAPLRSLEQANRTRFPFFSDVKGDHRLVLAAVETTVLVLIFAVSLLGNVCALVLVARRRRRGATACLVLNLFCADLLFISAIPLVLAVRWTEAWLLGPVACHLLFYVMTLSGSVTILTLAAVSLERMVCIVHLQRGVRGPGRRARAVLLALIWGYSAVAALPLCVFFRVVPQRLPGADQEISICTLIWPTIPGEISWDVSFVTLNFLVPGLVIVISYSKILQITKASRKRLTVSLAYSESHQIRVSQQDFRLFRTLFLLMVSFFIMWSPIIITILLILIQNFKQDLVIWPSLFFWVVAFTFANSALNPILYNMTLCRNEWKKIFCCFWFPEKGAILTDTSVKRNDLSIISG
Test: Human GPR120 in Calcium Flux Assay, Procedure Calcium A (2500 cells/well)
Assay type: cell-based
Method in brief: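 HEK293 cells stably expressing GPR120 short isoform, 2500 cells/well, serum-starved 1 h, loaded with Fluo-4 NW plus probenecid (30 min 37 °C, 15 min RT). Compounds prepared at 0.012–100 μM, 0.2% DMSO final. FLIPR calcium signal over 300 s as Fmax−Fmin; EC50 from variable-slope fit (Hill <2).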

SMILES | EC50 [nM]
CCc1cc2cc(Cl)c(OCC(F)(F)F)c(COc3ccc(CCC(=O)O)c(C)c3C)c2o1 [Compound 64, 3-(4-{[5-Chloro-2-ethyl-6-(2,2,2-trifluoroethoxy)-1-benzofuran-7-yl]methoxy}-2,3-dimethylphenyl)propanoic acid] | 56
CCOc1c(Cl)cc2cc(CC)oc2c1COc1ccc(CCC(=O)O)c(C)c1C [Compound 62, 3-{4-[(5-Chloro-6-ethoxy-2-ethyl-1-benzofuran-7-yl)methoxy]-2,3-dimethylphenyl}propanoic acid] | 67
Cc1cc2cc(F)cc(COc3ccc(CCC(=O)O)c(C)c3C)c2o1 [Compound 2, 3-{4-[(5-Fluoro-2-methyl-1-benzofuran-7-yl)methoxy]-2,3-dimethylphenyl}propanoic acid] | 51
CCCc1cc(OCc2cc(OC(F)(F)F)cc3cc(CC)oc23)c(F)cc1CCC(=O)O [Compound 50, 3-(4-{[2-Ethyl-5-(trifluoromethoxy)-1-benzofuran-7-yl]methoxy}-5-fluoro-2-propylphenyl)propanoic acid] | 59
CCc1cc2cc(Cl)c(OCC(C)C)c(COc3ccc(CCC(=O)O)c(C)c3C)c2o1 [Compound 67, 3-(4-{[5-Chloro-2-ethyl-6-(2-methylpropoxy)-1-benzofuran-7-yl]methoxy}-2,3-dimethylphenyl)propanoic acid] | 93
CCCc1cc2cc(C(F)(F)F)cc(COc3ccc(CCC(=O)O)c(C)c3C)c2o1 [Compound 37, 3-(2,3-Dimethyl-4-{[2-propyl-5-(trifluoromethyl)-1-benzofuran-7-yl]methoxy}phenyl)propanoic acid] | 43
CCc1cc2cc(Cl)c(OCCOC)c(COc3ccc(CCC(=O)O)c(C)c3C)c2o1 [Compound 63, 3-(4-{[5-Chloro-2-ethyl-6-(2-methoxyethoxy)-1-benzofuran-7-yl]methoxy}-2,3-dimethylphenyl)propanoic acid] | 67
CCc1cc2cc(Cl)cc(COc3ccc(CCC(=O)O)c4c3CCC4)c2o1 [Compound 54, 3-{7-[(5-Chloro-2-ethyl-1-benzofuran-7-yl)methoxy]-2,3-dihydro-1H-inden-4-yl}propanoic acid] | 36
Cc1c(CCC(=O)O)ccc(OCc2cc(Cl)cc3cn(C)nc23)c1C [Compound 8, 3-{4-[(5-Chloro-2-methyl-2H-indazol-7-yl)methoxy]-2,3-dimethylphenyl}propanoic acid] | 297
CCCc1cc2cc(Cl)cc(COc3ccc(CCC(=O)O)c(C)c3C)c2o1 [Compound 31, 3-{4-[(5-Chloro-2-propyl-1-benzofuran-7-yl)methoxy]-2,3-dimethylphenyl}propanoic acid] | 44
CCc1cc2cc(Cl)c(OC(F)F)c(COc3ccc(CCC(=O)O)c(C)c3C)c2o1 [Compound 69, 3-(4-{[5-Chloro-6-(difluoromethoxy)-2-ethyl-1-benzofuran-7-yl]methoxy}-2,3-dimethylphenyl)propanoic acid] | 45
CCc1cc2cc(F)cc(COc3ccc(CCC(=O)O)c(C)c3C)c2o1 [Compound 3, 3-{4-[(2-Ethyl-5-fluoro-1-benzofuran-7-yl)methoxy]-2,3-dimethylphenyl}propanoic acid] | 58
CC#Cc1cc(COc2ccc(CCC(=O)O)c(C)c2C)c2oc(CCC)cc2c1 [Compound 58, 3-{2,3-Dimethyl-4-[(2-propyl-5-prop-1-yn-1-yl-1-benzofuran-7-yl)methoxy]phenyl}propanoic acid] | 87
CC#Cc1cc(COc2ccc(CCC(=O)O)c(C)c2C)c2oc(C)cc2c1 [Compound 83, 3-{2,3-Dimethyl-4-[(2-methyl-5-prop-1-yn-1-yl-1-benzofuran-7-yl)methoxy]phenyl}propanoic acid] | 51
CCc1cc2ccc(OC(F)F)c(COc3ccc(CCC(=O)O)c(C)c3C)c2o1 [Compound 70, 3-(4-{[6-(Difluoromethoxy)-2-ethyl-1-benzofuran-7-yl]methoxy}-2,3-dimethylphenyl)propanoic acid] | 162
CCOc1cc(COc2ccc(CCC(=O)O)c(C)c2C)c2oc(CC)cc2c1 [Compound 29, 3-{4-[(5-Ethoxy-2-ethyl-1-benzofuran-7-yl)methoxy]-2,3-dimethylphenyl}propanoic acid] | 107
CCc1cc2cc(Cl)c(C)c(COc3ccc(CCC(=O)O)c(C)c3C)c2o1 [Compound 40, 3-{4-[(5-Chloro-2-ethyl-6-methyl-1-benzofuran-7-yl)methoxy]-2,3-dimethylphenyl}propanoic acid] | 34
Cc1cc2cc(Cl)cc(COc3c(F)cc(CCCO)cc3F)c2s1 [Compound 93, 3-{4-[(5-Chloro-2-methyl-1-benzothiophen-7-yl)methoxy]-3,5-difluorophenyl}propan-1-ol] | 1600
CCCc1cc2cc(OC(F)(F)F)cc(COc3ccc(CCC(=O)O)c(C)c3C)c2o1 [Compound 35, 3-(2,3-Dimethyl-4-{[2-propyl-5-(trifluoromethoxy)-1-benzofuran-7-yl]methoxy}phenyl)propanoic acid] | 40

The next molecules have a lower EC50 than those just listed; values first:

EC50 [nM] | SMILES
28 | CCCc1cc2cc(OC(F)F)cc(COc3ccc(CCC(=O)O)c(C)c3C)c2o1 [Compound 77, 3-(4-{[5-(Difluoromethoxy)-2-propyl-1-benzofuran-7-yl]methoxy}-2,3-dimethylphenyl)propanoic acid]
27 | CCc1cc2cc(Cl)c(OC)c(COc3ccc(CCC(=O)O)c(C)c3C)c2o1 [Compound 44, 3-{4-[(5-Chloro-2-ethyl-6-methoxy-1-benzofuran-7-yl)methoxy]-2,3-dimethylphenyl}propanoic acid]
24 | CCc1cc2cc(Cl)c(CC)c(COc3ccc(CCC(=O)O)c(C)c3C)c2o1 [Compound 61, 3-{4-[(5-Chloro-2,6-diethyl-1-benzofuran-7-yl)methoxy]-2,3-dimethylphenyl}propanoic acid]
24 | CCc1cc2cc(Br)cc(COc3ccc(CCC(=O)O)c(C)c3C)c2o1 [Compound 45, 3-{4-[(5-Bromo-2-ethyl-1-benzofuran-7-yl)methoxy]-2,3-dimethylphenyl}propanoic acid]
23 | CCc1cc2cc(Cl)cc(COc3ccc(CCC(=O)O)c(C)c3C)c2o1 [Compound 11, 3-{4-[(5-Chloro-2-ethyl-1-benzofuran-7-yl)methoxy]-2,3-dimethylphenyl}propanoic acid]
17 | Cc1cc2cc3c(c(COc4ccc(CCC(=O)O)c(C)c4C)c2o1)OC(F)(F)O3 [Compound 89, 3-{4-[(2,2-Difluoro-6-methylfuro[2,3-f][1,3]benzodioxol-4-yl)methoxy]-2,3-dimethylphenyl}propanoic acid]
15 | Cc1cc2cc(Cl)c(C)c(COc3ccc(CCC(=O)O)c(C)c3C)c2o1 [Compound 85, 3-{4-[(5-Chloro-2,6-dimethyl-1-benzofuran-7-yl)methoxy]-2,3-dimethylphenyl}propanoic acid]
10 | Cc1cc2cc(OC(F)(F)F)cc(COc3ccc(CCC(=O)O)c(C)c3C)c2o1 [Compound 36, 3-(2,3-Dimethyl-4-{[2-methyl-5-(trifluoromethoxy)-1-benzofuran-7-yl]methoxy}phenyl)propanoic acid]
